Paper PMC7160673, “A Degenerate Peptide Library Approach to Reveal Sequence Determinants of Methyllysine-Driven Protein Interactions” (Frontiers in Cell and Developmental Biology, 2020)

Experiments:
Format in all cases: binding
[1] = test system: 53BP1 TTD; assay: Histone peptide microarray, 53BP1 TTD; conditions: 53BP1 TTD hits, average signal per peptide
Experimental: (§1) Peptide microarrays were fabricated using an Aushon 2470 microarrayer and used as described ([Cornett et al., 2017]) with the following modifications. Protein and antibody hybridization steps were performed in buffer containing 25 mM HEPES pH 7.5, 100 mM NaCl, 0.5% BSA (w/v), and 0.1% NP-40. Slides were washed 3 × 5 min in PBS supplemented with 0.1% Tween-20 between each hybridization step. Antibodies used were primary anti-GST (Sigma #7781, 1:2,000 dilution) and an AlexaFluor 647-labeled secondary antibody (Life Technologies A-21245, 1:5,000 dilution). […] Full lists of peptides queried by array analysis are in Supplementary Table S2.

[2] = test system: Millipore #07-449, anti-H3K27me3; assay: Histone peptide microarray, Millipore 07-449; conditions: Millipore 07-449 (anti-H3K27me3) hits, average signal per peptide;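 also: normalized to the highest peptide average per subarray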
Experimental: as §1

[3] = test system: Active Motif #39161, anti-H3K9me3; assay: Histone peptide microarray, Active Motif 39161; conditions: Active Motif 39161 (anti-H3K9me3) hits;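 also: normalized to the highest peptide average per subarray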
Experimental: as §1

[4] = test system: Abcam #ab8895, anti-H3K4me1; assay: Histone peptide microarray, Abcam ab8895; conditions: Abcam ab8895 (anti-H3K4me1) hits, average signal per peptide;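 also: normalized to the highest peptide average per subarray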
Experimental: as §1

## (Biot)Peg-MPKDIQLARRIRGERA-OH [H3.1.1(120-135)]
[1]
  Avg Signal: 0.05797
[2]
  Avg Signal: 0.0002349
[3]
  Avg Signal: 0.000221

## ACitTK(Ac)QTARK(Ac)STGGK(Ac)APRK(Ac)QL-K(Biot)-NH2 [H3.1Cit2K4acK9acK14acK18ac]
[1]
  Avg Signal: 0.04568
[3]
  Avg Signal: 0.003876

## AGGK(Ac)AGK(Ac)DSGK(Ac)AKTKAVSR-Peg-Biot [H2A.Z.1K4acK7acK11ac]
[2]
  Avg Signal: 0.00926
[3]
  Avg Signal: 0.0007875
[4]
  Avg Signal: 0.0004754

## AGGKAGKDSGKAKTKAVSR-Peg-Biot [H2A.Z.1 unmod (1-19)]
[2]
  Avg Signal: 0.001328

## AGGRAGRDSGRAKTKAVSR-Peg-Biot [H2A.Z.1K4RK7RK11R]
[2]
  Avg Signal: 0.008119
[3]
  Avg Signal: 0.02573
[4]
  Avg Signal: 0.03173

## ARTK(Ac)QTARK(Ac)STGGK(Ac)APRKQL-K(Biot)-NH2 [H3.1K4acK9acK14ac]
[1]
  Avg Signal: 0.1165

## ARTK(Ac)QTARK(Ac)STGGKAPRK(Ac)QL-K(Biot)-NH2 [H3.1K4acK9acK18ac]
[1]
  Avg Signal: 0.1542
[2]
  Avg Signal: 0.0004417
[3]
  Avg Signal: 0.011

## ARTK(Ac)QTARK(Ac)STGGKAPRKQL-K(Biot)-NH2 [Peptide H3.1K4acK9ac]
[1]
  Avg Signal: 0.05583

## ARTK(Ac)QTARK(Ac)pSTGGK(Ac)APRK(Ac)QL-K(Biot)-NH2 [H3.1K4acK9acS10pK14acK18ac]
[1]
  Avg Signal: 0.04385

## ARTK(Ac)QTARKSTGGKAPRKQL-K(Biot)-NH2 [Peptide H3.1K4ac]
[1]
  Avg Signal: 0.1441
[3]
  Avg Signal: 0.0285

## ARTKQTAR(Me2s)KSTGGKAPRKQL-Peg-Biot [Peptide H3.1R8me2s]
[3]
  Avg Signal: 0.0002677
[4]
  Avg Signal: 0.05819

## ARTKQTARK(Ac)pSTGGKAPRKQL-K(Biot)-NH2 [Peptide H3.1K9acS10p]
[1]
  Avg Signal: 0.0481
[4]
  Avg Signal: 0.1852

## ARTKQTARKSTGG-NleAPRKQL-Peg-Biot [Peptide H3.1K14-Nle]
[2]
  Avg Signal: 0.0002842
[4]
  Avg Signal: 0.09623

## ARTKQTARKSTGGK(Me2)APRKQL-Peg-Biot [Peptide H3.1K14me2]
[2]
  Avg Signal: 0.003481
[3]
  Avg Signal: 0.004075
[4]
  Avg Signal: 0.15

## ARTKQTARKSTGGK(Me3)APRKQL-Peg-Biot [Peptide H3.1K14me3]
[2]
  Avg Signal: 0.01888
[4]
  Avg Signal: 0.148

## ARTKQTARKSpTGGKAPRKQL-Peg-Biot [Peptide H3.1T11p]
[2]
  Avg Signal: 0.0009523
[3]
  Avg Signal: 0.0006879
[4]
  Avg Signal: 0.1657

## ARTKQpTARK(Ac)STGGK(Ac)APRK(Ac)QL-K(Biot)-NH2 [H3.1T6pK9acK14acK18ac]
[1]
  Avg Signal: 0.04664
[2]
  Avg Signal: 0.004763
[3]
  Avg Signal: 0.002409

## ARpTK(Me3)QTARK(Ac)STGGK(Ac)APRK(Ac)QL-K(Biot)-NH2 [H3.1T3pK4me3K9acK14acK18ac]
[1]
  Avg Signal: 0.05883
[2]
  Avg Signal: 0.007748
[3]
  Avg Signal: 0.05484

## ARpTK(Me3)QTARKSTGGKAPRKQL-K(Biot)-NH2 [Peptide H3.1T3pK4me3]
[1]
  Avg Signal: 0.0446
[2]
  Avg Signal: 9.707e-5
[3]
  Avg Signal: 0.008533

## ATKAACitKSAPATGGVKKPHRYRPGGG-K(Biotin)-OH [H3.1K27acK36me3]
[2]
  Avg Signal: 0.01344
[3]
  Avg Signal: 0.01207
[4]
  Avg Signal: 0.0002929

## ATKAARK(Ac)SAPATGGVK(Me2)KPHRYRPG-GK(Biotin)-OH [H3.1K27acK36me2]
[2]
  Avg Signal: 0.003089
[3]
  Avg Signal: 0.009849
[4]
  Avg Signal: 0.002974

## ATKAARK(Ac)SAPATGGVK(Me)KPHRYRPG-GK(Biotin)-OH [H3.1K27acK36me1]
[2]
  Avg Signal: 0.006337
[3]
  Avg Signal: 0.01097
[4]
  Avg Signal: 0.01424

## Ac-AGGK(Ac)AGK(Ac)DSGK(Ac)AKTKAVSR-Peg-Biot [H2A.Z.1K4acK7acK11acN-ac]
[2]
  Avg Signal: 0.0008552
[3]
  Avg Signal: 0.000221
[4]
  Avg Signal: 4.222e-5

## Ac-AGGKAGKDSGKAKTKAVSR-Peg-Biot [H2A.Z.1(1-19)N-ac]
[2]
  Avg Signal: 0.007006
[4]
  Avg Signal: 0.002647

## Ac-APRK(Ac)QLATK(Ac)AARK(Ac)SAPSTGG-Peg-Biot [H3.3K18acK23acK27ac]
[2]
  Avg Signal: 0.005039
[3]
  Avg Signal: 0.0217

## Ac-APRKQLATKAARK(Ac)SAPATGG-Peg-Biot [Peptide H3.1K27ac]
[2]
  Avg Signal: 0.003716
[3]
  Avg Signal: 0.002581

## Ac-APRKQLATKAARK(Ac)SAPSTGG-Peg-Biot [Peptide H3.3K27ac]
[3]
  Avg Signal: 0.002855
[4]
  Avg Signal: 0.011

## Ac-APRKQLATKAARKpSAPSTGG-Peg-K(Biot)-NH2 [Peptide H3.3S28p]
[2]
  Avg Signal: 0.00807
[3]
  Avg Signal: 0.006366
[4]
  Avg Signal: 0.002135

## Ac-APRKQLATKAARR(Me2a)K(Me)SAPSTGG-Peg-Biot [H3.3R26me2aK27me1]
[2]
  Avg Signal: 0.002329
[4]
  Avg Signal: 0.000609

## Ac-ARAKAKTRSSRAGLQF-Peg-Biotin [H2A(10-25)]
[2]
  Avg Signal: 0.005421

## Ac-IAQDFK(Me)TDLRF-Peg-K(Biot)-NH2 [Peptide H3.1K79me1]
[1]
  Avg Signal: 0.009736
[3]
  Avg Signal: 0.002481

## Ac-IAQDFKTDLRF-Peg-K(Biot)-NH2 [H3.1.1(74-84)N-ac]
[1]
  Avg Signal: 0.06248
[3]
  Avg Signal: 0.005943

## Ac-RRYQK(Ac)STELL-Peg-Biot [Peptide H3.1K56ac]
[2]
  Avg Signal: 0.004595

## Ac-RRYQK(Me3)STELL-Peg-Biot [Peptide H3.1K56me3]
[2]
  Avg Signal: 0.0004417
[3]
  Avg Signal: 0.01852

## Ac-SGR(Me2a)GK(Ac)GGKGLGKGGAKRHRKVLR-K(Biot)-NH2 [Peptide H4R3me2aK5ac]
[3]
  Avg Signal: 0.0007875
[4]
  Avg Signal: 0.006503

## Ac-SGRGK(Ac)GGK(Ac)GLGK(Ac)GGAKRHRKVLR-Peg-Biot [H4K5acK8acK12ac]
[1]
  Avg Signal: 0.2078
[2]
  Avg Signal: 0.002971

## Ac-SGRGK(Ac)GGK(Ac)GLGK(Me)GGAK(Ac)RHRKVLR-Peg-Biot [H4K5acK8acK12me1K16ac]
[3]
  Avg Signal: 0.0008155
[4]
  Avg Signal: 0.02773

## Ac-SGRGK(Ac)GGK(Ac)GLGKGGAK(Ac)RHRKVLR-Peg-Biot [H4K5acK8acK16ac]
[3]
  Avg Signal: 0.009927

## Ac-SGRGK(Ac)GGK(Ac)GLGKGGAKRHRKVLR-Peg-Biot [Peptide H4K5acK8ac]
[2]
  Avg Signal: 0.02195
[4]
  Avg Signal: 0.0004782

## Ac-SGRGK(Ac)GGKGLGK(Ac)GGAK(Ac)RHRKVLR-Peg-Biot [H4K5acK12acK16ac]
[2]
  Avg Signal: 0.0005303

## Ac-SGRGK(Ac)GGKGLGKGGAK(Ac)RHRKVLR-Peg-Biot [Peptide H4K5acK16ac]
[2]
  Avg Signal: 0.0005008
[3]
  Avg Signal: 0.0002957

## Ac-SGRGK(Pro)GGK(Pro)GLGK(Pro)GGAKRHRKVLR-Peg-Biot [H4K5proK8proK12pro]
[2]
  Avg Signal: 0.02856
[3]
  Avg Signal: 0.005323

## Ac-SGRGKGGK(Ac)GLGK(Ac)GGAK(Ac)RHRKVLR-Peg-Biot [H4K8acK12acK16ac]
[2]
  Avg Signal: 0.005254
[4]
  Avg Signal: 0.004192

## Ac-SGRGKGGK(Ac)GLGKGGAKRHRK(Ac)VLR-Peg-Biot [Peptide H4K8acK20ac]
[2]
  Avg Signal: 0.001712
[3]
  Avg Signal: 0.003203

## Ac-SGRGKQGGKARAKAKTR-Peg-Biot [H2A(1-17)]
[1]
  Avg Signal: 0.1243

## Ac-TGGKAPR-NleQLATKAAR-Peg-Biot [Peptide H3.1K18-Nle]
[2]
  Avg Signal: 0.005136
[3]
  Avg Signal: 0.003627

## Ac-pSGRGK(Ac)QGGK(Ac)ARAK(Ac)AK(Ac)TR-Peg-Biot [H2AS1pK5acK9acK13acK15ac]
[1]
  Avg Signal: 0.09024

## Ac-pSGRGK(Ac)QGGKARAKAKTR-Peg-Biot [Peptide H2AS1pK5ac]
[1]
  Avg Signal: 0.01536
[3]
  Avg Signal: 0.009305

## Biot-Peg-GKKATQASQEY-OH [H2A.X(132-142)]
[2]
  Avg Signal: 0.01738
[4]
  Avg Signal: 0.00268

## H3.1.1(15-34)
[3]
  Avg Signal: 0.01508

## IAQDFKTDLRF-Peg-K(Biot)-NH2 [H3.1.1(74-84)]
[1]
  Avg Signal: 0.02
[3]
  Avg Signal: 0.003353

## IHQNLLPKK-pS-AKATKASQ-Peg-Biot [yH2AS121p]
[2]
  Avg Signal: 0.007624
[3]
  Avg Signal: 0.006042

## IHQNLLPKKSAKATKASQ-Peg-Biot [yH2A(112-129)]
[2]
  Avg Signal: 0.0006752
[3]
  Avg Signal: 0.005669
[4]
  Avg Signal: 0.01029

## KSAPSTGGVK(Ac)KPHRYKPGT-GG-K(Biot)-NH2 [yH3K36ac]
[1]
  Avg Signal: 0.06747

## KSAPSTGGVK(Me2)KPHRYKPGT-GG-K(Biot)-NH2 [yH3K36me2]
[1]
  Avg Signal: 0.8217

## KSAPSTGGVKKPHRYKPGT-GG-K(Biot)-NH2 (C-terminal GG-K(biotin) amide) [yH3.1(27-45)]
[1]
  Avg Signal: 0.1127

## KSAPSpTGGVKKPHRYRPGT-G-K(Biot)-NH2 [Peptide H3.3T32p]
[2]
  Avg Signal: 0.006003
[3]
  Avg Signal: 0.001353
[4]
  Avg Signal: 0.0003862

## KSAPpSTGGVK(Me3)KPHRYRPGTV-K(biotin)-NH2 [H3.3S31pK36me3]
[2]
  Avg Signal: 0.01017
[3]
  Avg Signal: 0.01189

## PEPAKSAPAPKK(Ac)GSKKAVTKAQKK-Peg-Biot [Peptide H2BK12ac]
[2]
  Avg Signal: 0.004181
[3]
  Avg Signal: 0.0009681

## PEPAKSAPAPKKGSKK(Ac)AVTKAQKK-Peg-Biot [Peptide H2BK16ac]
[2]
  Avg Signal: 0.006632
[3]
  Avg Signal: 0.01682
[4]
  Avg Signal: 0.001252
